melting point | SMILES
141 °C | CC(C)CCNC(=O)c1ccccc1-c1ccccc1CNS(=O)(=O)c1cccc(F)c1 [Example 3 n, 2′-(3-Fluorophenylsulfonylaminomethyl)biphenyl-2-carboxylic acid (3-methylbutyl)amide]
131 °C | O=C(NCCc1ccccn1)c1ccccc1-c1ccccc1CNS(=O)(=O)c1ccccc1 [Example 3 p]
130 °C | O=C(NCCc1ccccn1)c1ccccc1-c1ccccc1CNS(=O)(=O)c1ccc(F)cc1 [Example 3 q, 2′-(4-Fluorophenylsulfonylaminomethyl)biphenyl-2-carboxylic acid 2-(2-pyridyl)ethylamide]
123 °C | O=C(NCCc1ccccn1)c1ccccc1-c1ccccc1CNS(=O)(=O)c1cccc(F)c1 [Example 3 r, 2′-(3-Fluorophenylsulfonylaminomethyl)biphenyl-2-carboxylic acid 2-(2-pyridyl)ethylamide]
147 °C | CC(C)CCNC(=O)c1ccccc1-c1ccccc1CNC(=O)c1ccccc1 [Example 4 a, 2′-(Benzoylaminomethyl)biphenyl-2-carboxylic acid (3-methylbutyl)amide]
135 °C | O=C(NCc1ccccc1-c1ccccc1C(=O)NCCc1ccccn1)c1ccccc1 [Example 4 b, 2′-(Benzoylaminomethyl)biphenyl-2-carboxylic acid 2-(2-pyridyl)ethylamide]
99 °C | O=C(NCc1ccccc1-c1ccccc1C(=O)NCCc1ccccn1)Nc1ccccc1 [Example 5 b, 2′-[(3-Phenylureido)methyl]biphenyl-2-carboxylic acid 2-(2-pyridyl)ethylamide]

SMILES | melting point
CC(C)CCNC(=O)c1ccccc1-c1ccccc1CNC(=O)Nc1ccccc1 [Example 5 a, 2′-[(3-Phenylureido)methyl]biphenyl-2-carboxylic acid (3-methylbutyl)amide] | 194 °C

Source: US7514582B2, “2′-substituted 1,1′-biphenyl-2-carboxamides, processes for their preparation, their use as medicaments, and pharmaceutical preparations comprising them” (Sanofi-Aventis Deutschland GmbH, priority 1999, dated 2009)
